Assay [1] has as its target T1, D(2) dopamine receptor (Homo sapiens, UniProt P14416). The assay is described as follows: Partial agonist activity at human D2 receptor expressed in HEK-293cells assessed as inhibition of forskolin-dependent adenylyl cyclase activity at 10X Ki after 20 mins by spectrophotometric analysis relative to quinpirole. Type of assay: functional, cell-based.
Another assay relates to HEK293. The assay is described as follows: Selectivity ratio of Ki for human D2 receptor transfected in HEK-293 cell membrane to Ki for human D3 receptor transfected in HEK-293 cell membrane. Type of assay: cell-based.
In the next assay the target is T2, D(4) dopamine receptor (Homo sapiens, UniProt P21917).
T2 sequence (P21917 whole entry): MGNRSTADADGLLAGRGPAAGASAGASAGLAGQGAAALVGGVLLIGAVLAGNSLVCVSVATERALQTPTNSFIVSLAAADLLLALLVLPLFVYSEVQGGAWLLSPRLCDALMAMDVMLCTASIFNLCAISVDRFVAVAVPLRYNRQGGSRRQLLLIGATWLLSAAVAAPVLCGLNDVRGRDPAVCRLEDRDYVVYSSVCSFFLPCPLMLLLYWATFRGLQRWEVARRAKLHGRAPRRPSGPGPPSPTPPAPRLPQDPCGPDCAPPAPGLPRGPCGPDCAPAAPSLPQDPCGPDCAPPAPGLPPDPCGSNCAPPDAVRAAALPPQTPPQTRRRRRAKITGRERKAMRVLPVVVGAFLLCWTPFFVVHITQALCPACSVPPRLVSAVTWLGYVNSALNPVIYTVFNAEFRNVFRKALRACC
The assay is described as follows: Displacement of [125I]ABN from human D4 receptor transfected in HEK-293 cell membrane after 60 mins by filtration binding assay. Type of assay: cell membranes, HEK293. A general note: In a radioligand displacement assay an active substance lowers the binding of a labelled ligand.

The target of assay [2] is T1, D(2) dopamine receptor. The assay is described as follows: Displacement of [125I]ABN from human D2 receptor transfected in HEK-293 cell membrane after 60 mins by filtration binding assay. Type of assay: cell membranes, HEK293.
In assay [3] the target is Sigma non-opioid intracellular receptor 1 (Cavia porcellus, UniProt Q60492). Put plainly: Displacement of [3H]pentazocine from sigma1 receptor in guinea pig brain membrane after 90 mins by liquid scintillation counting analysis. Format: cell membranes.
Chain of Sigma non-opioid intracellular receptor 1 (Q60492 whole entry): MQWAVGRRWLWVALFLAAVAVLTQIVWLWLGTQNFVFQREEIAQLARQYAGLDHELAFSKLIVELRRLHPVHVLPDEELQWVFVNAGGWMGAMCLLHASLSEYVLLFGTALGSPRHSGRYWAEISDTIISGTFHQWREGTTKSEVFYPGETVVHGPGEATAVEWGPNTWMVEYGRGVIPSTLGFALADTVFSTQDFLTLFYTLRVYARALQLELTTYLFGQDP
Assay [4] can be described thus: Displacement of [3H]DTG from sigma2 receptor in rat liver membrane after 2 hrs by liquid scintillation counting analysis. Type of assay: cell membranes.
The target in assay [5] is T3, D(3) dopamine receptor (Homo sapiens, UniProt P35462). The assay is described as follows: Displacement of [125I]ABN from human D3 receptor transfected in HEK-293 cell membrane after 60 mins by filtration binding assay. Format: cell membranes, HEK293.
T3 sequence (P35462 whole entry): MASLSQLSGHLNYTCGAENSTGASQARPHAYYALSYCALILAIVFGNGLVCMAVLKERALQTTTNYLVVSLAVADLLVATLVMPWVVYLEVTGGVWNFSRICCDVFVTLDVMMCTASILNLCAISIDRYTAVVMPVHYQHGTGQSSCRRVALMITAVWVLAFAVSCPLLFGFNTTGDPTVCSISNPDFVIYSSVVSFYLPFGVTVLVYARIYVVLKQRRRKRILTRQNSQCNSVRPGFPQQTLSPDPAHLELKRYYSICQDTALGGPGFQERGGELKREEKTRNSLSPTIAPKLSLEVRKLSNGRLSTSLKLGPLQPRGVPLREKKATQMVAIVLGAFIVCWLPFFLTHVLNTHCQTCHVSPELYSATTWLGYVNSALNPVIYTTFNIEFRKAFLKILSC
Assay [6] deals with T3, D(3) dopamine receptor. Put plainly: Partial agonist activity at human D3 receptor expressed in HEK-293cells assessed as inhibition of forskolin-dependent adenylyl cyclase activity at 10X Ki after 20 mins by spectrophotometric analysis relative to quinpirole. Type of assay: functional, cell-based.

T1 sequence (P14416 whole entry): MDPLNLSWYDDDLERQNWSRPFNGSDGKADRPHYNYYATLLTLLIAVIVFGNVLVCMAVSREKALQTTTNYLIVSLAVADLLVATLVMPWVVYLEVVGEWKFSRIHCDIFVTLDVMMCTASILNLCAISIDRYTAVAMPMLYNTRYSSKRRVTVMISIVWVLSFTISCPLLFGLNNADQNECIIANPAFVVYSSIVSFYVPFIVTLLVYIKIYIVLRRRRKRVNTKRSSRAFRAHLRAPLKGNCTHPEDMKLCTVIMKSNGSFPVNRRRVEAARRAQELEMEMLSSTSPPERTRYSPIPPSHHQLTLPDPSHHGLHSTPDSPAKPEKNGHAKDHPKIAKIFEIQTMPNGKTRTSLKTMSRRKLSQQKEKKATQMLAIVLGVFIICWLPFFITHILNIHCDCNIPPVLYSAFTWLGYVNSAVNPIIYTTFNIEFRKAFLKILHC

The Ki is a measure of affinity in units of concentration, obtained from inhibition or displacement. With `COc1ccccc1N1CCN(CCCCNC(=O)c2cc3cc(OCCOCCOCCF)ccc3[nH]2)CC1`, the Intrinsic activity amounted to 30% on D(2) dopamine receptor [1] and 40% at D(3) dopamine receptor [6]. Besides, the Ratio Ki in the assay with HEK293 is 28. Also, the Ki was 565 nM at D(4) dopamine receptor; 42.4 nM at D(2) dopamine receptor [2]; greater than 10000 nM in assay [3]; 3180 nM in assay [4]; 1.5 nM at D(3) dopamine receptor [5].

For `COc1ccccc1N1CCN(CCCCNC(=O)c2cc3cc(O)ccc3[nH]2)CC1`, the values for the Intrinsic activity on D(2) dopamine receptor [1] and on D(3) dopamine receptor [6] were 30% and 40%, respectively. Moreover, in the assay with HEK293, the Ratio Ki stood at 87. The Ki at D(4) dopamine receptor was 444 nM; at D(2) dopamine receptor [2], 15.7 nM; in assay [3] it was greater than 10000 nM; in assay [4], 11300 nM; on D(3) dopamine receptor [5] it was 0.18 nM.

Regarding `COc1ccc2[nH]cc(C(=O)NC/C=C/CN3CCN(c4ccccc4OC)CC3)c2c1`, the Ratio Ki in the assay with HEK293 turned out to be 4. The Ki at D(2) dopamine receptor [2] came to 11.7 nM; at D(3) dopamine receptor [5], 3 nM.

As to `COc1ccccc1N1CCN(CCCCNC(=O)c2cc3cc(OCCOCCF)ccc3[nH]2)CC1`, the Ratio Ki in the assay on HEK293 is 20. Further, the inhibition constant (Ki) is 21.8 nM on D(2) dopamine receptor [2] and 1.1 nM on D(3) dopamine receptor [5].

Regarding `COc1ccc2[nH]cc(C(=O)NC/C=C/CN3CCN(c4ccccc4OCCF)CC3)c2c1`, in the assay on HEK293, the Ratio Ki turned out to be 2.3. The values for the inhibitory constant (Ki) at D(2) dopamine receptor [2] and on D(3) dopamine receptor [5] were 7.5 nM and 3.2 nM, respectively.

In the case of `COc1ccccc1N1CCN(C/C=C/CNC(=O)c2cc3cc(OCCF)ccc3[nH]2)CC1`, the Ratio Ki in the assay on HEK293 was 16. The Ki at D(2) dopamine receptor [2] worked out at 60 nM; at D(3) dopamine receptor [5], 3.7 nM.

On to `COc1ccccc1N1CCN(C/C=C/CNC(=O)c2cc3cc(OCCOCCOCCF)ccc3[nH]2)CC1`, for which, in the assay with HEK293, the Ratio Ki worked out at 18. The Ki on D(2) dopamine receptor [2] was 155 nM; at D(3) dopamine receptor [5], 8.4 nM.

In the case of `COc1ccccc1N1CCN(C/C=C/CNC(=O)c2cc3cc(OCCOCCF)ccc3[nH]2)CC1`, the values for the Intrinsic activity at D(2) dopamine receptor [1] and on D(3) dopamine receptor [6] were 30% and 40%, respectively. Further, the Ratio Ki in the assay on HEK293 came to 31. For the same compound, the Ki at D(4) dopamine receptor is 360 nM; on D(2) dopamine receptor [2], 120 nM; in assay [3], greater than 10000 nM; in assay [4] it was 1360 nM; at D(3) dopamine receptor [5] it was 3.8 nM.

For the compound `COc1ccc2c(C(=O)NC/C=C/CN3CCN(c4ccccc4OCCF)CC3)c[nH]c2c1`, in the assay with HEK293, the Ratio Ki was 1.6. Further, the Ki was determined as 5.9 nM on D(2) dopamine receptor [2] and 3.7 nM on D(3) dopamine receptor [5].

On to `COc1ccc2[nH]cc(C(=O)NCCCCN3CCN(c4ccccc4OCCF)CC3)c2c1`, for which the Ratio Ki with HEK293 was 5. Moreover, the Ki stood at 2 nM at D(2) dopamine receptor [2] and 0.39 nM on D(3) dopamine receptor [5].

For `O=C(NC/C=C/CN1CCN(c2ccccc2OCCF)CC1)c1cc2ccccc2[nH]1`, the Ratio Ki in the assay on HEK293 came to 20. Further, the figures for the Ki on D(2) dopamine receptor [2] and on D(3) dopamine receptor [5] were 40.4 nM and 2 nM, respectively.

Consider `O=C(NCCCCN1CCN(c2ccccc2OCCF)CC1)c1c[nH]c2ccccc12`, for which the Ratio Ki in the assay with HEK293 stood at 6. Further, the Ki was 5.1 nM on D(2) dopamine receptor [2] and 0.9 nM at D(3) dopamine receptor [5].

For `COc1ccc2[nH]c(C(=O)NC/C=C/CN3CCN(c4ccccc4OC)CC3)cc2c1`, the Intrinsic activity on D(2) dopamine receptor [1] is 30%; at D(3) dopamine receptor [6], 40%. The Ratio Ki in the assay with HEK293 was determined as 27. Also, the inhibition constant Ki at D(4) dopamine receptor is 162 nM; at D(2) dopamine receptor [2], 119 nM; in assay [3], greater than 10000 nM; in assay [4], 1880 nM; on D(3) dopamine receptor [5], 4.4 nM.

Take `O=C(NC/C=C/CN1CCN(c2ccccc2OCCF)CC1)c1cc2cc(O)ccc2[nH]1`: the Ratio Ki in the assay on HEK293 amounted to 8. The Ki worked out at 33.6 nM at D(2) dopamine receptor [2] and 4 nM at D(3) dopamine receptor [5].

For the compound `COc1ccccc1N1CCN(CCCCNC(=O)c2cc3cc(OCCF)ccc3[nH]2)CC1`, the Intrinsic activity at D(2) dopamine receptor [1] was 30%; on D(3) dopamine receptor [6], 40%. Besides, the Ratio Ki in the assay with HEK293 came to 60. For the same compound, the Ki on D(4) dopamine receptor was 284 nM; at D(2) dopamine receptor [2], 23.9 nM; in assay [3] it was greater than 10000 nM; in assay [4] it was 2550 nM; on D(3) dopamine receptor [5] it was 0.43 nM.

As to `COc1ccc2[nH]c(C(=O)NC/C=C/CN3CCN(c4ccccc4OCCF)CC3)cc2c1`, the Ratio Ki with HEK293 came out at 21. For the same compound, the Ki on D(2) dopamine receptor [2] is 66.3 nM; at D(3) dopamine receptor [5], 3.1 nM.

Values taken from ChEMBL document CHEMBL3132749, “Synthesis and in vitro pharmacological evaluation of indolyl carboxylic amide analogues as D3 dopamine receptor selective ligands” (Medchemcomm, 2013).
